Results taken from patent US4332818A, “1,4;3,6-Dianhydro-2,5-diazido-2,5-dideoxy-hexitols” (priority 1980, dated 1982).

How the values were obtained:
in vivo = details: mouse, mice
From the text: (§1) The activity of the compounds of the Formula I has been tested and compared to that of Glutethimid in various tests. As test compound 1,4;3,6-dianhydro-2,5-diazido-2,5-dideoxy-L-mannitol is used.
(§2) In Table I the LD50 and HD50 values measured on mice are disclosed (HD=hypnotic dose). Table II contains the minimal hypnotic doses measured on various animals (HDmin), while in Table III the results of various CNS tests on mice are summarized.

mice [1] = test: HD50 (hypnotic dose) on mice; format: in vivo; details: Mus musculus, HD = hypnotic dose
From the text: as §1, §2

Mouse = test: Minimal hypnotic dose (HDmin), mouse; format: in vivo; details: ip
From the text: as §1, §2

Rat = test: Minimal hypnotic dose (HDmin), rat; format: in vivo; details: ip
From the text: as §1, §2

Cat = test: Minimal hypnotic dose (HDmin), cat; format: in vivo; details: Felis catus, ip
From the text: as §1, §2

Rabbit = test: Minimal hypnotic dose (HDmin), rabbit; format: in vivo; details: Oryctolagus cuniculus, ip
From the text: as §1, §2

mice [2] = test: CNS test: Motility; format: in vivo; details: Mus musculus, po
From the text: as §1, §2

mice [3] = test: CNS test: Tranquillizing effect (fighting test); format: in vivo; details: Mus musculus, po
From the text: as §1, §2

mice [4] = test: CNS test: Narcosis potentiating; format: in vivo; details: Mus musculus, po
From the text: as §1, §2

mice [5] = test: CNS test: Rotating rod; format: in vivo; details: Mus musculus, ip
From the text: as §1, §2

Compound: CCC1(c2ccccc2)CCC(=O)NC1=O (stereo not drawn) [Glutethimid, 3-ethyl-3-phenyl-2,6-dioxo-piperidine]
- LD50 (in vivo; ip): 305 mg/kg
- LD50 (in vivo; po): 580 mg/kg
- ED50 (mice [1]; ip): 135 mg/kg
- ED50 (mice [1]; po): 200 mg/kg
- minimal effective dose (Mouse): 100 mg/kg
- minimal effective dose (Rat): 100 mg/kg
- minimal effective dose (Cat): 125 mg/kg
- minimal effective dose (Rabbit): 175 mg/kg
- ED50 (mice [2]): 135 mg/kg
- ED50 (mice [3]): 40 mg/kg
- ED100 (mice [4]): 30 mg/kg
- ED50 (mice [5]): 70 mg/kg
